Laboratory results taken from patent US11420947B2, “(S)-n-hydroxy-2-(2-(4-methoxyphenyl)butanamido)thiazole-5-carboxamide and pharmaceutically acceptable salts thereof” (TRANSLATIONAL DRUG DEVELOPMENT, LLC, priority 2018, dated 2022).
Where two headings read alike, the source gives them in different places.

How the values were obtained:
[1] = Pharmacokinetics studies in mice; format: in vivo; conditions: for AUC(0-inf) / AUC(0-t) / Cmax / Tmax / half-life / bioavailability / Vd/F: mouse, in vivo; for Vd/F: read-out: Vz/Fobs
Excerpt: Volume of distribution is one of the most important pharmacokinetic properties of a drug candidate and for an anticancer drug can result in increased drug distribution to the tumor.

SN12CCP = assay: CellTiter-Glo cell viability assay; format: cell-based
Procedure: (§1) Cell viability in the presence of varying concentrations of the above listed compounds at different time points was used to assess cytotoxicity and the effect of the compounds on cell proliferation.
(§2) Cell viability was measured by the CellTiter-Glo® cell viability assay from Promega (Madison, Wis.). The CellTiter-Glo® Luminescent Cell Viability Assay is a homogeneous method to determine the number of viable cells in culture based on quantitation of the ATP present, which signals the presence of metabolically active cells. Following treatment, CellTiter-Glo® is added to treatment wells and incubated at 37° C. luminescence values were measured at using a Molecular Devices Spectramax microplate reader
(§3) Cells were grown to 70% confluency, trypsinized, counted, and seeded in 96 well flat-bottom plates at a final concentration of 2.5×10^3-5×10^3 cells/well (Day 0). Cells were allowed to incubate in growth media for 24 hours. Treatment with the test agents or standard agents began on Day 1 and continued for 72 hours. At the 72-hour timepoint, treatment containing media was removed. Viable cell numbers are quantified by the CellTiter-Glo® cell viability assay as described above. Results from these studies were used to calculate an IC50 value (concentration of drug that inhibits cell growth by 50 percent of control) for each compound.
(§4) For single agent and combination studies, data from each experiment was collected and expressed as % Cell Growth using the following calculation: % Cell Growth=(ftest/fvehicle)×100
(§5) Where test is the fluorescence of the tested sample, and fvehicle is the fluorescence of the vehicle in which the drug is dissolved. Dose response graphs and IC50 values were generated using Prism 6 software (GraphPad) using the following equation: Y=(Top-Bottom)/(1+10^((logIC^50^-X)-HillSlope))

THP-1 = assay: CellTiter-Glo cell viability assay; format: cell-based
Procedure: as §1, §2, §3, §4, §5

N87 = assay: CellTiter-Glo cell viability assay; format: cell-based
Procedure: as §1, §2, §3, §4, §5

Panc-1 = assay: CellTiter-Glo cell viability assay; format: cell-based
Procedure: as §1, §2, §3, §4, §5

LK-2 = assay: CellTiter-Glo cell viability assay; format: cell-based
Procedure: as §1, §2, §3, §4, §5

MDA-MB-157 = assay: CellTiter-Glo cell viability assay; format: cell-based
Procedure: as §1, §2, §3, §4, §5

H1975 = assay: CellTiter-Glo cell viability assay; format: cell-based
Procedure: as §1, §2, §3, §4, §5

MC38 = assay: CellTiter-Glo cell viability assay; format: cell-based, Murine
Procedure: as §1, §2, §3, §4, §5

L1210 = assay: CellTiter-Glo cell viability assay; format: cell-based, Murine
Procedure: as §1, §2, §3, §4, §5

CT26 = assay: CellTiter-Glo cell viability assay; format: cell-based, Murine
Procedure: as §1, §2, §3, §4, §5

GL261 = assay: CellTiter-Glo cell viability assay; format: cell-based, Murine
Procedure: as §1, §2, §3, §4, §5

4T1 = assay: CellTiter-Glo cell viability assay; format: cell-based, Murine
Procedure: as §1, §2, §3, §4, §5

IGROV-1 = assay: CellTiter-Glo cell viability assay; format: cell-based, Human
Procedure: as §1, §2, §3, §4, §5

A2780 = assay: CellTiter-Glo cell viability assay; format: cell-based, Human
Procedure: as §1, §2, §3, §4, §5

OVCAR-8 = assay: CellTiter-Glo cell viability assay; format: cell-based, Human
Procedure: as §1, §2, §3, §4, §5

A2780cp = assay: CellTiter-Glo cell viability assay; format: cell-based, Human
Procedure: as §1, §2, §3, §4, §5

BIN-67 = assay: CellTiter-Glo cell viability assay; format: cell-based, Human
Procedure: as §1, §2, §3, §4, §5

OVCAR-3 = assay: CellTiter-Glo cell viability assay; format: cell-based, Human
Procedure: as §1, §2, §3, §4, §5

SCCOHT-1 = assay: CellTiter-Glo cell viability assay; format: cell-based, Human
Procedure: as §1, §2, §3, §4, §5

SKOV-3 = assay: CellTiter-Glo cell viability assay; format: cell-based, Human
Procedure: as §1, §2, §3, §4, §5

COV434 = assay: CellTiter-Glo cell viability assay; format: cell-based, Human
Procedure: as §1, §2, §3, §4, §5

[2] = IV-1 mg/kg, 5% Ethanol 5% Cremophor 90% Saline
[3] = PO-5 mg/kg, 10% Ethanol 90% Labrasol
[4] = SC-5 mg/kg, 5% Ethanol 5% Cremophor 90% Saline

Q: Which results are given for `CC[C@H](C(=O)Nc1ncc(C(=O)NO)s1)c1ccc(OC)cc1` [#1a, (S)—N-hydroxy-2-(2-(4-methoxyphenyl)butanamido)thiazole-5-carboxamide]?
A: AUC % Extrap [1, 2]: 0.20%; CI/Fobs [1, 2]: 156 mL/min/kg; AUC % Extrap ([1]; PO-5 mg/kg): 1.93%; CI/Fobs ([1]; PO-5 mg/kg): 1122 mL/min/kg; AUC % Extrap [1, 3]: 1.93%; CI/Fobs [1, 3]: 1122 mL/min/kg; AUC % Extrap [1, 4]: 0.85%; CI/Fobs [1, 4]: 240.3 mL/min/kg; AUC(0-inf) [1, 2]: 107 ng·h/mL; AUC(0-t) [1, 2]: 106 ng·h/mL; Cmax [1, 2]: 131 ng/mL; Tmax [1, 2]: 15 min; half-life [1, 2]: 55.8 min; AUC(0-inf) ([1]; PO-5 mg/kg): 74.3 ng·h/mL; AUC(0-t) ([1]; PO-5 mg/kg): 72.8 ng·h/mL; Cmax ([1]; PO-5 mg/kg): 28.7 ng/mL; Tmax ([1]; PO-5 mg/kg): 30 min; bioavailability ([1]; PO-5 mg/kg): 13.9%; half-life ([1]; PO-5 mg/kg): 332 min; Vd/F ([1]; PO-5 mg/kg): 537 L/kg; AUC(0-inf) [1, 4]: 347 ng·h/mL; AUC(0-t) [1, 4]: 344 ng·h/mL; Cmax [1, 4]: 252 ng/mL; Tmax [1, 4]: 15 min; bioavailability [1, 4]: 65.1%; half-life [1, 4]: 73.2 min; Vd/F [1, 4]: 25.3 L/kg; IC50 (SN12CCP; SN12CCP, RENAL, RCC, 72 hours): 55 nM; #1/#1a (SN12CCP; ratio of IC50, SN12CCP): 2.29; #1b/#1a (SN12CCP; ratio of IC50, SN12CCP): 7.45; IC50 (THP-1; Homo sapiens, THP-1, HEMATOPIETIC, AML, 72 hours): 32 nM; #1/#1a (THP-1; ratio of IC50, THP-1): 2.03; #1b/#1a (THP-1; ratio of IC50, THP-1): 6.13; IC50 (N87; N87, GASTRIC, Carcinoma, 72 hours): 18 nM; #1/#1a (N87; ratio of IC50, N87): 6.67; #1b/#1a (N87; ratio of IC50, N87): 18.39; IC50 (Panc-1; Homo sapiens, Panc-1, PANCREAS, Pancreatic, 72 hours): 302 nM; #1/#1a (Panc-1; ratio of IC50, Panc-1): 2.09; #1b/#1a (Panc-1; ratio of IC50, Panc-1): 8.85; IC50 (LK-2; Homo sapiens, LK-2, LUNG, Carcinoma, 72 hours): 40 nM; #1/#1a (LK-2; ratio of IC50, LK-2): 4.9; #1b/#1a (LK-2; ratio of IC50, LK-2): 9.95; IC50 (MDA-MB-157; Homo sapiens, MDA-MB-157, BREAST, Medullary Carcinoma, 72 hours): 89 nM; #1/#1a (MDA-MB-157; ratio of IC50, MDA-MB-157): 1.9; #1b/#1a (MDA-MB-157; ratio of IC50, MDA-MB-157): 6.27; IC50 (H1975; Homo sapiens, NCI-H1975, H1975, LUNG, NSCLC, 72 hours): 40 nM; #1/#1a (H1975; ratio of IC50, H1975): 2.85; #1b/#1a (H1975; ratio of IC50, H1975): 9.95; IC50 (MC38; Mus musculus, MC-38, MC38, MURINE COLON, Colon, 72 hours): 58 nM; #1/#1a (MC38; ratio of IC50, MC38): 2.21; #1b/#1a (MC38; ratio of IC50, MC38): 8.5; IC50 (L1210; Mus musculus, L1210, HEMATOPIETIC, Murine Leukemia, 72 hours): 38 nM; #1/#1a (L1210; ratio of IC50, L1210): 1.55; #1b/#1a (L1210; ratio of IC50, L1210): 8.53; IC50 (CT26; Mus musculus, CT26, MURINE COLON, Colon, 72 hours): 465 nM; #1/#1a (CT26; ratio of IC50, CT26): 2.83; #1b/#1a (CT26; ratio of IC50, CT26): 6.91; IC50 (GL261; Mus musculus, GL261, MURINE BRAIN, Murine Glioma, 72 hours): 132 nM; #1/#1a (GL261; ratio of IC50, GL261): 2.82; #1b/#1a (GL261; ratio of IC50, GL261): 9.11; IC50 (4T1; Mus musculus, 4T1, BREAST, Murine Breast Tumor, 72 hours): 23 nM; #1/#1a (4T1; ratio of IC50, 4T1): 1.57; #1b/#1a (4T1; ratio of IC50, 4T1): 8.04; IC50 (IGROV-1; IGROV-1, OVARIAN, Human Ovarian Adenocarcinoma, 72 hours): 54 nM; #1/#1a (IGROV-1; ratio of IC50, IGROV-1): 1.44; #1b/#1a (IGROV-1; ratio of IC50, IGROV-1): 9.07; IC50 (A2780; A2780, OVARIAN, Human Ovarian, 72 hours): 32 nM; #1/#1a (A2780; ratio of IC50, A2780): 1.5; #1b/#1a (A2780; ratio of IC50, A2780): 6.84; IC50 (OVCAR-8; OVCAR-8, OVARIAN, Human Ovarian Carcinoma, 72 hours): 21 nM; #1/#1a (OVCAR-8; ratio of IC50, OVCAR-8): 1.71; #1b/#1a (OVCAR-8; ratio of IC50, OVCAR-8): 5.38; IC50 (A2780cp; A2780C/P, A2780cp, OVARIAN, Platinum res-Human Ovarian, 72 hours): 62 nM; #1/#1a (A2780cp; ratio of IC50, A2780cp): 1.89; #1b/#1a (A2780cp; ratio of IC50, A2780cp): 6.1; IC50 (BIN-67; BIN-67, OVARIAN, Human Small Cell Carcinoma of the Ovary, 72 hours): 51 nM; #1/#1a (BIN-67; ratio of IC50, BIN-67): 1.33; #1b/#1a (BIN-67; ratio of IC50, BIN-67): 8.82; IC50 (OVCAR-3; OVCAR-3, OVARIAN, Human Ovarian Carcinoma, 72 hours): 39 nM; #1/#1a (OVCAR-3; ratio of IC50, OVCAR-3): 1.67; #1b/#1a (OVCAR-3; ratio of IC50, OVCAR-3): 6.26; IC50 (SCCOHT-1; SCCOHT-1, OVARIAN, Human Small Cell Carcinoma of the Ovary, 72 hours): 293 nM; #1/#1a (SCCOHT-1; ratio of IC50, SCCOHT-1): 1.16; #1b/#1a (SCCOHT-1; ratio of IC50, SCCOHT-1): 0.63; IC50 (SKOV-3; SK-OV-3, SKOV-3, OVARIAN, Human Ovarian Carcinoma, 72 hours): 63 nM; #1/#1a (SKOV-3; ratio of IC50, SKOV-3): 1.79; #1b/#1a (SKOV-3; ratio of IC50, SKOV-3): 8.08; IC50 (COV434; COV434, OVARIAN, Human Ovarian Granulosa, 72 hours): 35 nM; #1b/#1a (COV434; ratio of IC50, COV434): 9.69
